“Also recorded” adds a separate entry of the source.
Columns and labels:
tubulin = assay: Inhibition of [3H]colchicine binding to tubulin; settings: inhibitor at 1:5:5 μM
Experimental: The assembly reaction mixtures contained 0.8 M monosodium glutamate (pH 6.6 with HCl in a 2 M stock solution), 10 μM tubulin, 4% (v/v) DMSO, and varying concentrations of the drug. Following a 15 min preincubation at 30 °C, samples were chilled on ice, GTP to 0.4 mM was added, and turbidity development was followed at 350 nm in a temperature-controlled recording spectrophotometer for 20 min at 30 °C. The extent of reaction was measured. Full experimental details were previously described.[63] For the colchicine binding assay, reaction mixtures contained 1.0 μM tubulin, 5.0 μM [^3H]colchicine, and 5.0 or 1.0 μM inhibitor and were incubated for 10 min at 37 °C. Complete details were described previously.[64]

OVCAR-3 OC cells = assay: OVCAR-3 proliferation assay (cell count, Trypan Blue); format: cell-based; settings: Homo sapiens, 48 h incubation, read-out: IC50 cell viability OVCAR-3
Experimental: The methodology for the evaluation of the growth of human MCF-7 breast carcinoma cells was previously described, except that cells were grown for 96 h for IC50 determinations.[66] U-87 MG and OVCAR-3 proliferation assays were performed plating 10^4 cells/cm^2 in a Multiwell 24. The day after, cells were treated with compound 15, and DMSO was used as a control. Cells were counted 48 h later with a Bürker counting chamber, after dilution in TrypanBlue (#T6146 Sigma-Aldrich).
All experiments were performed multiple times to reach statistical significance, as specified in the figure legends. Statistical analysis was performed using GraphPad Prism version 7.0 for Mac. IC50 values were calculated by using a nonlinear regression formula, using the percentage of cells number and the logarithmic value of drug concentrations. Data were analyzed with analysis of variance (one-way ANOVA test). Data with *p < 0.05 were considered statistically significant.

[1] = test system: human primary T lymphocytes; assay: Toxicity on human primary T lymphocytes (annexin V / propidium iodide flow cytometry); format: cell-based; settings: 48 or 72 h
Experimental: Cell lines were obtained from the American Type Culture Collection (ATCC), Rockville, MD. U87 MG cells were cultured in minimum essential medium (MEM) supplemented with 10% fetal bovine serum, 1% penicillin/streptomycin, 1% glutamine, 1% sodium pyruvate, and 1% nonessential amino acids. OVCAR-3 cells were cultured in Dulbecco’s modified eagle medium (DMEM) purchased from Sigma Aldrich (cat. no. D6546) supplemented with 20% fetal bovine serum,1% penicillin/streptomycin, 1% glutamine, 1% sodium pyruvate, 1% Hepes, and 0.01 μg/mL insulin (Sigma Aldrich, cat. no. 19278). […] Healthy donors’ peripheral blood mononuclear cells (PBMCs) were isolated by Lymphoprep (Nycomed) gradient centrifugation. T lymphocytes were negatively selected from PBMCs using a magnetic Dynabeads Untouched Human T Cells Kit (Thermo Fisher Scientific) following the manufacturer’s instructions.
Apoptotic cell death was evaluated using the APC Annexin-V Apoptosis Detection Kit with PI (Thermo Fisher Scientific). Briefly, 1.5 × 10^6/mL cells were cultured in 48-well plates, untreated or treated with different concentrations of 15 for 48 or 72 h. Cells were then stained using annexin-V/APC and propidium iodide according to the manufacturer’s instructions. Cell populations were acquired using a FACS Canto II flow cytometer (BD Biosciences). […]

COc1cc(C(=O)c2cn(-c3ncccn3)cc2-c2ccco2)cc(OC)c1OC [Compound 15, (4-(Furan-2-yl)-1-(pyrimidyl-2-yl)-1H-pyrrol-3-yl)(3,4,5-trimethoxyphenyl)methanone]
Inhib. colch. binding 1-5-5 (% ± SD) (tubulin): 88 ± 0.4%
IC50 (OVCAR-3 OC cells): 2.85 nM
cell viability / toxicity ([1]; 0.1 μM): did not change cell viability; also recorded: not toxic
cell viability / toxicity ([1]; 1.0 or 2.5 μM): some cytotoxicity was observed

Reference: publication PMC9743090, “Induction of Ferroptosis in Glioblastoma and Ovarian Cancers by a New Pyrrole Tubulin Assembly Inhibitor” (Journal of Medicinal Chemistry, 2022)
